SMILES strings stand for the structures. “Also recorded” adds a separate entry of the source. Read-outs that look alike come from different tables or passages of the source.

The source of these data is article PMC3893073, “Structural and Functional Analyses of a Sterol Carrier Protein in Spodoptera litura” (PLoS ONE, 2014).

In one test the target is SlSCPx-2 (Spodoptera litura, UniProt D1GJ60). Nature of the test: 1,8-ANS fluorescence displacement (competitive binding) assay, wild type rSlSCPx-2. The following applies: for RBAchol / RBApal: IC50 of wild type for the same ligand (=100%). On the procedure:
Binding of the fluorescent probe 1, 8-ANS to sterol carrier protein (SlSCPx-2) is measured by relative increase in fluorescent intensity. Steady-state fluorescence spectra were measured on a Cary Eclipse fluorescence spectrophotometer (Varian, Mulgrave, Australia) using a 1-cm path length cuvette. The binding was monitored by measuring the fluorescence signal between 400 and 600 nm following excitation at 350 nm. Slit widths were set to 5 and 10 nm for the excitation and emission monochromators, respectively. […] All measurements were performed at room temperature and the samples were equilibrated for 5 min prior to measurement. At each of the given concentrations, at least three replicates were performed.
(§1) After the incubation, each potential ligand at a serial of concentration (0–100 µM) was added into the 1, 8-ANS-protein mixture for another 2.5 min and the fluorescence intensity of the 1,8-ANS-protein complex was measured as previously described. The control was the reaction of ANS probe and a series of concentration (0–100 µM) of ligands without the protein. To calculate binding activity of the ligands and the protein, the fluorescence intensity of the controls were subtracted from the total fluorescence intensity of the 1, 8-ANS-protein complex in the presence of ligands tested. Each ligand replacement assay was repeated for three times.

The next test addresses SlSCPx-2 T128A (Spodoptera litura, UniProt D1GJ60, T518A). Nature of the test: biochemical. The format is binding. The method, then:
as §1, with “Binding of the fluorescent probe 1, 8-ANS to SlSCPx-2 can be competed with physiological ligands. SlSCPx-2 at 15 µM was incubated with 1, 8-ANS at 15 µM in the reaction buffer (pH 7.0) at room temperature for 2.5 min. After” for “After”
(§2) Various mutations in His-tagged SlSCPx-2 were constructed by using the Stratagene QuickChange Site-Directed Mutagenesis Kit (TAKARA, Dalian, China). Recombined plasmid containing SlSCPx-2 fused with the His-Tag sequence in a pPROEXTM HTa vector was used as a template. Two complementary primer pairs containing the desired mutations were used to construct each gene mutant. All mutant sequences were confirmed by DNA sequencing. The binding affinity of the mutants with the various ligands was examined using the fluorescence displacement assay as described above.

The next test addresses SlSCPx-2 F110A (Spodoptera litura, UniProt D1GJ60, F500A). Nature of the test: biochemical. The class given is binding. The method, then:
as §1, with “Binding of the fluorescent probe 1, 8-ANS to SlSCPx-2 can be competed with physiological ligands. SlSCPx-2 at 15 µM was incubated with 1, 8-ANS at 15 µM in the reaction buffer (pH 7.0) at room temperature for 2.5 min. After” for “After”
as §2

In the next test the target is SlSCPx-2 F89W (Spodoptera litura, UniProt D1GJ60, F479W). Nature of the test: biochemical. The format is binding. On the procedure: as §1, with “Binding of the fluorescent probe 1, 8-ANS to SlSCPx-2 can be competed with physiological ligands. SlSCPx-2 at 15 µM was incubated with 1, 8-ANS at 15 µM in the reaction buffer (pH 7.0) at room temperature for 2.5 min. After” for “After”
as §2

For a further test, the target named is SlSCPx-2 I115M (Spodoptera litura, UniProt D1GJ60, I505M). Nature of the test: biochemical. The format is binding. On the procedure: (§3) Binding of the fluorescent probe 1, 8-ANS to SlSCPx-2 can be competed with physiological ligands. SlSCPx-2 at 15 µM was incubated with 1, 8-ANS at 15 µM in the reaction buffer (pH 7.0) at room temperature for 2.5 min. […] […] To calculate binding activity of the ligands and the protein, the fluorescence intensity of the controls were subtracted from the total fluorescence intensity of the 1, 8-ANS-protein complex in the presence of ligands tested. Each ligand replacement assay was repeated for three times.
as §2

A further test has as its target SlSCPx-2 W66E (Spodoptera litura, UniProt D1GJ60, W456E). Nature of the test: biochemical. The class given is binding. The method, then:
as §3, §2

For the next test, the target named is SlSCPx-2 F53W (Spodoptera litura, UniProt D1GJ60, F443W). Briefly: biochemical. The class given is binding. The method, then:
as §3, §2

In a further test the target is SlSCPx-2 F53A (Spodoptera litura, UniProt D1GJ60, F443A). Briefly: biochemical. The class given is binding. On the procedure: as §3, §2
Another test addresses SlSCPx-2 F110W (Spodoptera litura, UniProt D1GJ60, F500W). Nature of the test: biochemical. The class given is binding. On the procedure: as §3, §2
The next test has as its target SlSCPx-2 Q131A (Spodoptera litura, UniProt D1GJ60, Q521A). Briefly: biochemical. The class given is binding. On the procedure:
as §3, §2

For a further test, the system named is S. litura larvae. Briefly: Diet bioassay for inhibition of growth of S. litura larvae. The format is in vivo, Spodoptera litura. The following applies: for body weight of the treated larvae: 13 days post egg hatching, increasing concentrations 3, 12, 48 µg/g diet, compared to the control; for inhibitory effect on the growth of S. litura larvae: newly hatched larvae, artificial diet with 3, 12 and 48 µg/g diet. On the procedure: Newly hatched S. litura larvae (30 larvae per treatment) were reared in artificial diet in presence of each chemical at different concentrations of 3, 12 and 48 µg/g diet. Control larvae were fed in the diet with diluted acetone (solvent for the chemical). Fresh diet was provided every other day. Larvae development was monitored until pupation. Larvae were weighted at 13 days post egg hatching when most of the larvae were at 5th instar stage.

Another test has as its system H. armigera neonates. The following applies: cited from earlier work.
The subject of the next test is A. aegypti. Further details: method as in PMID 15627652. Particulars: cited from earlier work.
In another test the target is SlSCPx-2 F89A (Spodoptera litura, UniProt D1GJ60, F479A). Briefly: biochemical. The class given is binding. The method, then: as §3, §2
Setting [1] is: wild type, displacement of 15 µM 1,8-ANS from 15 µM SlSCPx-2, pH 7.0, read-out: IC50.
[2] abbreviates: IC50 of cholesterol (=100%) divided by IC50 of each chemical.

What is called IC50 is the concentration at which inhibition is half-maximal. As to `CC[C@H](/C=C/[C@@H](C)[C@H]1CC[C@H]2[C@@H]3CC=C4C[C@@H](O)CC[C@]4(C)[C@H]3CC[C@]12C)C(C)C` [Stigmasterol], at SlSCPx-2, the IC50 was found to be 190 ± 2.29 µM and the “RBA (relative binding affinity)” value came out at 26%.
`CCCCC/C=C\C/C=C\CCCCCCCC(=O)O` [Linoleic acid]: the “RBA (relative binding affinity)” value on SlSCPx-2 stood at 35%. Also, on SlSCPx-2 (setting [1]), the IC50 was 143 ± 0.99 µM.
Regarding `CCCCCCCCCCCCCCCC(=O)O` [Palmitic acid], the “RBA (relative binding affinity)” value at SlSCPx-2 turned out to be 85%. The “RBAchol / RBApal” value at SlSCPx-2 (wild type) came to 100%. The IC50 on SlSCPx-2 (setting [1]) turned out to be 59.1 ± 1.29 µM; at SlSCPx-2 T128A, 32.8 ± 1.52 µM; on SlSCPx-2 F110A, 41.7 ± 1.62 µM; at SlSCPx-2 F89W, 77.5 ± 1.51 µM; on SlSCPx-2 I115M, 6617 ± 38.2 µM; on SlSCPx-2 W66E it was 67.3 ± 3.43 µM. For the same compound, the IC50 against SlSCPx-2 F53W worked out at 5777 ± 28 µM; at SlSCPx-2 F53A it was 71.7 ± 0.84 µM; against SlSCPx-2 F110W, 503.3 ± 2.7 µM; at SlSCPx-2 Q131A it was 354.8 ± 2.55 µM.
For the compound `CCCCC/C=C\C/C=C\C/C=C\C/C=C\CCCC(=O)O` [Arachidonate, arachidonic acid], on SlSCPx-2, the IC50 came to 18.1 ± 0.83 µM. The “RBA (relative binding affinity)” value at SlSCPx-2 (setting [2]) amounted to 277%.
Turning to `CCc1ccc(C(=O)/C=C/Nc2ccc(NC(C)=O)cc2)cc1` [AH-487/41731687], the “RBA (relative binding affinity)” value at SlSCPx-2 is listed as 1166%. The IC50 on SlSCPx-2 (setting [1]) is 4.3 ± 0.63 µM. Moreover, in the test with S. litura larvae, the “body weight of the treated larvae” value was “decreased, significantly” and the “inhibitory effect on the growth of S. litura larvae” value (from here on “inhibitory effect on the growth”) is given as “inhibited the growth; also recorded: had inhibitory effect”.
With `CCCCCCOC(=O)c1ccc(NC(=O)CCC)cc1` [AG-205/36813059], the “RBA (relative binding affinity)” value at SlSCPx-2 is recorded as 210%. The concentration for half-maximal inhibition (IC50) at SlSCPx-2 (setting [1]) amounted to 23.9 ± 1.38 µM. For the same compound, the “inhibitory effect on the growth” value with S. litura larvae is given as “inhibited the growth; also recorded: a certain degree of biological activity; also recorded: had inhibitory effect”.
Taken in the same sequence, the figures for `C=CCc1cccc(/C=N/NC(=O)COc2ccccc2C)c1O` [AG-205/07775053] were 0.6%, 8630 ± 393 µM and “inhibited the growth; also recorded: high inhibitory effect; also recorded: had inhibitory effect”.
Consider `CCCCCCCC(=O)O` [Octanoate, reference compound], for which the “RBA (relative binding affinity)” value on SlSCPx-2 (setting [2]) is given as 23%. Moreover, at SlSCPx-2 (setting [1]), the IC50 was 217.9 ± 1.53 µM.
On to `CCCCCCCC/C=C\CCCCCCCC(=O)O` [Oleic acid], for which, at SlSCPx-2, the half-maximal inhibitory concentration (IC50) was 24.4 ± 1.14 µM and the “RBA (relative binding affinity)” value was determined as 206%.
For `CC(=O)Nc1ccc(Nc2nc(-c3ccc(Cl)c(Cl)c3)cs2)cc1` [AeSCPI-1, reference compound], the “RBA (relative binding affinity)” value at SlSCPx-2 came out at 31%. The IC50 on SlSCPx-2 (setting [1]) came to 161 ± 5.03 µM. Also, in the test on H. armigera neonates, the “lethality to H. armigera neonates” value is “lethal”. Further, the “time to kill the larvae post the treatment” value in the test on A. aegypti (A. aegypti larvae) is listed as at most 3 days.
As to `CC(C)CCC[C@@H](C)[C@H]1CC[C@H]2[C@@H]3CC=C4C[C@@H](O)CC[C@]4(C)[C@H]3CC[C@]12C` [Cholesterol, reference compound], on SlSCPx-2 (wild type), the “RBAchol / RBApal” value was found to be 100%. Moreover, the IC50 came to 50.1 ± 0.8 µM on SlSCPx-2 (setting [1]); 20.8 ± 1.32 µM on SlSCPx-2 T128A; 5.58 ± 1.23 µM on SlSCPx-2 F89W; 34.3 ± 1.53 µM at SlSCPx-2 I115M; 974 ± 10.7 µM against SlSCPx-2 W66E; 4669 ± 23.2 µM on SlSCPx-2 F53W. The IC50 on SlSCPx-2 F53A was 7300 ± 280 µM; at SlSCPx-2 F89A, 1743 ± 1.3 µM; on SlSCPx-2 F110W it was 231 ± 2.36 µM; against SlSCPx-2 Q131A, 2690 ± 34.2 µM.
For the compound `CC(C)[C@@H](C)/C=C/[C@@H](C)[C@H]1CC[C@H]2C3=CC=C4C[C@@H](O)CC[C@]4(C)[C@H]3CC[C@]12C` [Ergosterol], on SlSCPx-2, the IC50 turned out to be 167.6 ± 0.34 µM and the “RBA (relative binding affinity)” value was determined as 30%.
As to `Cc1cc(OCCCCc2c(C)n[nH]c2C)ccc1Cl` [AG-664/14117324], the “RBA (relative binding affinity)” value on SlSCPx-2 is 1943%. Also, the IC50 at SlSCPx-2 (setting [1]) came out at 2.58 ± 0.2 µM. In addition, in the test with S. litura larvae, the “body weight of the treated larvae” value is on record as “decreased, significantly” and the “inhibitory effect on the growth” value was “inhibited the growth; also recorded: had inhibitory effect”.
Turning to `COc1cccc(-n2sc3c(c2=S)-c2cc(Cl)ccc2NC3(C)C)c1` [AeSCPI-2, reference compound], the “RBA (relative binding affinity)” value at SlSCPx-2 was found to be 91%. Besides, at SlSCPx-2 (setting [1]), the IC50 was 55 ± 0.66 µM. Besides, the “mortality in A. aegypti” value in the test with A. aegypti is on record as “caused death at larva-to-pupa transition period”.
For the compound `CCCCCCCCCCCCCCCCCC(=O)O` [Stearic acid], at SlSCPx-2, the “RBA (relative binding affinity)” value is 126%. Also, at SlSCPx-2 (setting [1]), the IC50 came to 39.8 ± 1.17 µM.
